# Measured values reported in patent publication US6291247A, “Methods of screening for factors that disrupt neurotrophin conformation and reduce neurotrophin biological activity” (priority 1996, dated 2001).
# “Also recorded” adds a separate entry of the source.
# What was measured:
# PC12 cells = experiment: NGF-dependent survival of PC12 cells; assay type: cell-based, rat
# Protocol: Effects of divalent ions on NGF mediated survival and toxicity was evaluated using a colorimetric assay for the lysosomal enzyme acid phosphatase to determine cell number (Connolly, D. T., Knight, M. B., Harakas, N. K, Wittwer, A. J. & Feder, J. Determination of the number of endothelial cells in culture using an acid phosphatase assay. Anal. Biochem. 152, 136-140 (1986); Ueda, Y., Walsh, E., Nakanishi H. & Yoshida, K. A. colorometric assay method for the evaluation of neurotrophic activity in vitro. Neurosci. Lett. 165, 203-207 (1994)). […] To evaluate toxicity, the cells were seeded and maintained without NGF in RPMI with 10% heat inactivated donor horse serum and 5% fetal calf serum in the presence of additives. Loss in viable cell number was determined and expressed as a percent of control. NGF rescues PC12 cells from cell death in serum-free medium(Greene, L. A. Nerve growth factor prevents the death and stimulates neuronal differentiation of clonal PC12 pheochromocytoma cells in serum-free medium. J. Cell Biol. 78, 747-755 (1978)). NGF-dependent survival was assessed by harvesting PC12 cells in balanced salt solution followed with washing by 4 cycles of suspension and centrifugation in serum-free RPMI prior to seeding in 96 well plates. After incubation with additives, medium was removed from the wells and cells washed once with 200 μl PBS. Buffer containing 0.1M sodium acetate pH 5.5, 0.1% Triton X-100 and 10 mM p-nitrophenyl phosphate (Sigma 104 phosphatase substrate) was added to each well (100 μl). Plates were incubated at 37° C. for 3 hours. The reaction was stopped by the addition of 10 μl/well of 1N sodium hydroxide and the color development measured at 405 nm using a microplate reader. The relationship between cell number and enzyme activity was linear over the range 1000 to 15,000 cells.
# To explore the ability of other transition metals to influence the biological activities of NGF, a series of cations known to mimic in certain respects the binding of zinc to proteins were tested. […] For this reason these ions were not tested in NGF- dependant growth phenomena. […] As these studies appeared to indicate potentially complex results upon metal ions binding to NGF, a receptor crosslinking system where specific receptor types could be identified was utilized.
# TrkA receptor = experiment: NGF-dependent TrkA phosphorylation in PC12 cells, metal ions; assay type: cell-based, rat
# Protocol: Zn^2+ and/or other additives were allowed to equilibrate with NGF for 2 hours at 4° C. prior to addition of cells. PC12 cells were used at 10^6 cells/ml and incubated with 40 pM NGF for 15 minutes at 37° C. At the conclusion of the reaction, cells were washed, lysed in TBS containing 10% glycerol, 1% Triton X-100, 1 mM PMSF, 10 μg/ml aprotinin, 1 μg/ml leupeptin and 500 μM orthovanadate (lysis buffer, 10^8 cells/ml). The cellular debris was removed by centrifugation and the soluble proteins incubated with an anti-TrkA cytoplasmic domain antibody. Antibody complexes were isolated by incubating with immobilized protein G (Pierce Ultralink; 70 μl of a 50% slurry) for 2 hours at 4° C. The solid phase was washed extensively with lysis buffer and the pellet dissolved in SDS sample buffer. Proteins were resolved using 6% SDS PAGE and Western analysis performed with anti-phosphotyrosine 4G10 (UBI) visualized with ECL (Amersham).
# p75^NTR = experiment: 125I-NT-3 binding to p75NTR; settings: 100 μM Zn2+, n = 3; 120 min
# Protocol: Full length (1-118) mouse NGF purified by HPLC from 2.5S NGF (purity greater than 95%) was obtained from Cedarlane Laboratories (Toronto, Ont). The iodination of NGF was performed as previously described (Sutter, A, Riopelle, R. J., Harris-Warrick, R. M. & Shooter, E. M. Nerve growth factor receptors. J. Biol. Chem. 254, 5972-5982 (1979)). […] PC12 cells were grown in RPMI with 10% heat inactivated donor horse serum and 5% fetal calf serum. Each data point was set up in a single tube containing ^125 I-NGF (at the required concentration), 400,000 cells (for a final call concentration of 10^6 /ml), BDNF (at 40 nM for TrkA binding) and NGF (at 10 nM for non-specific binding) as required. The tubes were incubated for 2 hr at 4° C. and 100 μl aliquots (providing triplicate data points for each sample) were transferred to 400 μl microcentrifuges containing 200 μl of 10% glycerol in HKR. Tubes were centrifuged for 2 minutes at 5,000 rpm, the tip containing the cell pellet cut off and radioactivity bound to the cells was determined.
# Human recombinant BDNF and human recombinant NT-3 were obtained from Alomone Laboratories (Israel). The iodination, crosslinking, and binding experiments using BDNF and NT-3 were performed using the methods described above for NGF. Neurite outgrowth assays were performed as described in the presence of 4.0 nM NT-3 or 8.0 nM BDNF.
# NGF [1] = molecular target: T1, NGF (Mus musculus, UniProt P01139); experiment: NGF protomer crosslinking with BS3 (NGF conformation), metal ions; assay type: biochemical
# T1 construct: homodimer
# T1 sequence (P01139 122-239): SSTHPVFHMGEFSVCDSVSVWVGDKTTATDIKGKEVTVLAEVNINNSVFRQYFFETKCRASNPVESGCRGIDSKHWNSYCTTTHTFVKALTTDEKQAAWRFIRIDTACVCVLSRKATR
# Protocol: For crosslinking NGF […], 0.4 mM BS^3 was added to the mixture and incubated for 30 minutes at 25° C. […] For CD studies, NGF (50 μg/ml) was dissolved in 50 mM Tris-HCl buffer and spectra recorded using a computer controlled Jasco J-600 spectropolarimeter. Samples were acquired in the absence or presence of Zn^2+ (100 μM) at 22° C. in a 2 mm quartz cell averaged over eight scans. Modification of His residues by DEPC was carried out as previously described, where the molar excess of DEPC added and the extent of reaction was determined by evaluating the loss of binding activity of the modified product.
# NGF [2] = molecular target: T1, NGF; experiment: Circular dichroism of NGF; settings: 100 μM, 22° C.
# Protocol: For conformation and dimer integrity studies, 0.1 nM ^125 I-NGF was incubated in the presence or absence of Zn^2+ in HKR buffer for 2 hours at 4° C. in a total volume of 0.1 ml. For crosslinking NGF […], 0.4 mM BS^3 was added to the mixture and incubated for 30 minutes at 25° C. The reaction was quenched with reducing SDS PAGE sample buffer, electrophoresed using a linear 15% acrylamide gel and autoradiographed. To assess the dimeric nature of NGF in the presence of Zn^2+, ^125 I-NGF was electrophoresed in a non-reducing SDS PAGE system as described, autoradiographed, and the labelled proteins excised from the gels and counted. For CD studies, NGF (50 μg/ml) was dissolved in 50 mM Tris-HCl buffer and spectra recorded using a computer controlled Jasco J-600 spectropolarimeter. Samples were acquired in the absence or presence of Zn^2+ (100 μM) at 22° C. in a 2 mm quartz cell averaged over eight scans. Modification of His residues by DEPC was carried out as previously described, where the molar excess of DEPC added and the extent of reaction was determined by evaluating the loss of binding activity of the modified product.
compound,measurement,setting,value
[Zn+2] [Zn^2+],NGF-mediated survival of PC12 cells,"PC12 cells; 100 μM, serum-free, CaEDTA together with Zn2+",reduced signifcantly
same,Antagonism of NGF-dependent survival,PC12 cells; high (1 nM) or low (50 pM) NGF,ability to antagonize the NGF-dependant survival
same,Survival @ 50 pM NGF,"PC12 cells; rat, pc12 cells, 100 µM",67 ± 19 % control
same,Survival @ 1 nM NGF,"PC12 cells; rat, pc12 cells, 100 µM",84 ± 39 % control
same,NGF-induced TrkA phosphorylation,"TrkA receptor; 100 μM, PC12 cells",prevented phosphorylation
same,Basal TrkA phosphorylation,TrkA receptor; no NGF,no effect on basal TrkA phosphorylation
same,"% Maximum p75NTR binding, 125I-NT-3",p75^NTR,13.3 ± 9.5 % Maximum binding
same,Crosslinking of 125I-NGF to larger complexes (BSA or ovalbumin),NGF [1],promoted
same,NGF monomer crosslinking by BS3,"NGF [1]; 0.1 nM 125I-NGF, CaEDTA together with Zn2+",NGF monomer crosslinking was inhibited
same,NGF Protomer Conformation (active/inactive),NGF [1]; 100 μM,active
same,Crosslinking of NGF promoters after His modification (DEPC),NGF [1]; DEPC-modified NGF,not affected by Zn^2+; also recorded: abolished
same,Mean molar ellipticity of NGF by CD,NGF [2],significant decrease
